Consider 23 compounds from publication PMC9481608, “Synthesis of natural product hybrids by the Ugi reaction in complex media containing plant extracts” (Scientific Reports, 2022).

One test concerns the target T1, α-chymotrypsin (bovine pancreatic) (Bos taurus, UniProt P00766).
T1 construct: native enzyme from bovine pancreas, commercial, used as received
Briefly: chromogenic protease inhibition assay, absorbance at […] nm. In kind it is biochemical. The conditions noted are these: 100 μM SAAPFpNA, 6 nM enzyme, 80 mM Tris-HCl pH 7.8, 10 mM CaCl2, 25 °C, 30 min preincubation, 3% DMSO.
Consider `CC(=O)N(Cc1ccccc1)C(CC(C)CCC=C(C)C)C(=O)NCS(=O)(=O)c1ccc(C)cc1` (racemic) [compound 2, Ugi adduct 2], for which the “% Inhibition (10 μM)^a” value turned out to be 9.2 ± 1.6%.

With `CC(C)=C1C[C@@H]2[C@@H](CCC(C)(C(=O)NC3CCCCC3)N(Cc3ccccc3)C(=O)CCl)[C@]2(C)CC1=O` (mixture of isomers) [compound 4, Ugi adduct 4], the “% Inhibition (10 μM)^a” value amounted to 3.1 ± 0.9%.

Consider `CC(=O)N(Cc1ccccc1)C(C)(CC[C@@H]1[C@H]2CC(=C(C)C)C(=O)C[C@@]12C)C(=O)NC1CCCCC1` (mixture of isomers) [compound 5, Ugi adduct 5], for which the “% Inhibition (10 μM)^a” value came out at 4.2 ± 1.7%.

The target in another test is T1, α-chymotrypsin (bovine pancreatic). Briefly: biochemical. Also noted: alpha-chymotrypsin inhibition, SAAPFpNA (100 uM) hydrolysis, absorbance at 410 nm, 25 °C, pH 7.8.
Settings: not given
The method, then: Bovine pancreatic α-chymotrypsin was purchased from Sigma-Aldrich (C4129) and used as received. Enzyme solutions were kept on ice during the experiments. The molecular mass of α-chymotrypsin was taken as 25 kDa. N-Succinyl-L-alanine-L-alanine-L-proline-L-phenylalanine-p-nitroanilide (SAAPFpNA) was purchased from Sigma-Aldrich (S7388), prepared as a 10 mM stock solution in DMSO, and stored at − 30 °C. A microbial chymostatin, a mixture of chymostatin A–C, was purchased from Peptide Institute (4063) and used as a positive control. DMSO for biochemical research was purchased from Nacalai and used as received. Other reagents were purchased from Nacalai and used as received. The concentration–response curves were plotted and IC50 values were calculated by GraphPad Prism 8 software using a sigmoidal concentration–response curve analysis with variable slope. Absorbance was measured with a JASCO V-660 spectrometer at 25 °C. According to the reported procedure, the assay was performed in Tris–HCl buffer (80 mM, pH 7.8) containing α-chymotrypsin (6 nM, final concentration) and CaCl2 (10 mM, final concentration). After 30 min of incubation with the test compound at 25 °C, the enzymatic reaction was initiated by adding SAAPFpNA (100 μM, final concentration) to give a final volume of 700 μL. Reaction progress was monitored by absorbance at 410 nm at 25 °C for 5 min. The final concentration of DMSO was 3% (v/v). The prepared Ugi adducts have a diamide motif and were therefore subjected to a protease inhibition assay. Protease inhibitors have received increasing attention for their therapeutic potential against respiratory virus infections including severe acute respiratory syndrome coronavirus 2 (SARS-CoV-2)[34],[35]. The inhibitory activity of the Ugi adducts was determined in the presence of 6 nM α-chymotrypsin and 100 μM succinyl-Ala-Ala-Pro-Phe-p-nitroanilide[36]. […] Thus, the proposed engineering method, although preliminary, can be used to create novel candidates for α-chymotrypsin inhibitors. Further structural optimization, such as removal of the benzyl group on the amide nitrogen, construction of a dipeptide motif, and installation of an aromatic amino acid residue at the C-terminal of dipeptides[37] will improve the inhibitory activities of the Ugi adducts and will be reported in due course. The molecular weights of the synthesized plant product-like molecules were in the range of 492.70–1011.57 g mol^−1, which corresponds to the category of beyond the rule of five (bRo5)[38], or middle-molecules. Therefore, the present chemical hybridization method could be used to construct a small library of middle-molecules mimicking natural products, which is useful for the discovery of peptidic modulators of protein–protein interactions. Ongoing biological evaluations of the present molecules will unveil their specific pharmaceutical potential.
Compound `O=C(CCl)N(Cc1ccccc1)C1(C(=O)NC2CCCCC2)CCCC1` [1e, 1-(N-Benzyl-2-chloroacetamido)-N-cyclohexylcyclopentane-1-carboxamide] yielded an inhibition at 10 µM of 0.2 ± 0.8%.

With `CC(C)=CCCC(C)CC(C(=O)NC1CCCCC1)N(Cc1ccccc1)C(=O)CC[C@@H](C)[C@H]1CC[C@H]2[C@@H]3[C@@H](O)C[C@@H]4C[C@H](O)CC[C@]4(C)[C@H]3CC[C@]12C` (stereo partly drawn) [1j, 2-((R)-N-Benzyl-4-((3R,5S,7S,8R,9S,10S,13R,14S,17R)-3,7-dihydroxy-10,13-dimethylhexadecahydro-1H-cyclopenta[a]phenanthren-17-yl)pentanamido)-N-cyclohexyl-4,8-dimethylnon-7-enamide], the IC50 was 9.2 ± 0.8 µM and at 10 µM the inhibition was 62.3 ± 0.2%.

`O=C(NC1CCCCC1)C(c1ccccc1)N(Cc1ccccc1)C(=O)C1CCCCC1` (stereo not shown) [1i, N-Benzyl-N-(2-(cyclohexylamino)-2-oxo-1-phenylethyl)cyclohexanecarboxamide] displayed an inhibition at 10 µM of 3.8 ± 0.4%.

In turn, `Cc1ccc(S(=O)(=O)CNC(=O)C(c2ccccc2)N(Cc2ccccc2)C(=O)CCl)cc1` (stereo not shown) [1a, N-Benzyl-2-chloro-N-(2-oxo-1-phenyl-2-((tosylmethyl)amino)ethyl)acetamide] had an inhibition at 10 µM of 4.7 ± 1.1%.

With `O=C(NC1CCCCC1)C(c1ccccc1)N(C(=O)CCl)c1ccc2ccc3cccc4ccc1c2c34` (stereo not shown) [1g, 2-Chloro-N-(2-(cyclohexylamino)-2-oxo-1-phenylethyl)-N-(pyren-1-yl)acetamide], it took 4.5 ± 0.3 µM to reach half-maximal inhibition (IC50) and the inhibition at 10 µM was found to be 83.7 ± 1.8%.

`CC1=C(C(C(=O)NC2CCCCC2)N(Cc2ccccc2)C(=O)CCl)C(C)(C)CCC1` (stereo not shown) [1d, N-Benzyl-2-chloro-N-(2-(cyclohexylamino)-2-oxo-1-(2,6,6-trimethylcyclohex-1-en-1-yl)ethyl)acetamide] yielded an inhibition at 10 µM of 8.9 ± 2.1%.

Compound `CC(=O)N(Cc1ccccc1)C(C(=O)NC1CCCCC1)c1ccccc1` (stereo not shown) [1h, 2-(N-Benzylacetamido)-N-cyclohexyl-2-phenylacetamide] yielded an inhibition at 10 µM of 2.4 ± 1.6%.

With `O=C(NC1CCCCC1)C(c1ccccc1)N(Cc1ccccc1)C(=O)CCl` (stereo not shown) [1b, N-Benzyl-2-chloro-N-(2-(cyclohexylamino)-2-oxo-1-phenylethyl)acetamide], the inhibition at 10 µM was determined as 9.2 ± 2%.

Compound `Cc1ccc(S(=O)(=O)CNC(=O)C2(N(Cc3ccccc3)C(=O)CCl)CCCC2)cc1` [1f, 1-(N-Benzyl-2-chloroacetamido)-N-(tosylmethyl)cyclopentane-1-carboxamide] yielded an inhibition at 10 µM of 7.1 ± 1%.

As to `CC(C)C(C(=O)NC1CCCCC1)N(Cc1ccccc1)C(=O)CCl` (stereo not shown) [1c, 2-(N-Benzyl-2-chloroacetamido)-N-cyclohexyl-3-methylbutanamide], the inhibition at 10 µM was 4.4 ± 2%.

The test is the same for the next values; noted with them: read-out: % Inhibition (10 μM).
Regarding `Nc1ccc2ccc3cccc4ccc1c2c34` [1-Aminopyrene], the inhibition at 10 µM is 5.6 ± 1%.

For `CCCCCC[C@@H](O)C/C=C\CCCCCCCC(=O)O` [(R)-Ricinoleic acid], the inhibition at 10 µM was determined as 3 ± 0.9%.

Take `CC(=O)CC[C@@H]1[C@H]2CC(=C(C)C)C(=O)C[C@@]12C` [Curcumenone (6)]: the inhibition at 10 µM stood at 7.8 ± 1.2%.

Regarding `[C-]#[N+]CS(=O)(=O)c1ccc(C)cc1` [TosMIC], the inhibition at 10 µM was 0.5 ± 0.5%.

In the case of `NCc1ccccc1` [Benzylamine], the inhibition at 10 µM is 7 ± 1.4%.

Another test shares this target. Briefly: chromogenic protease inhibition assay, absorbance at […] nm. The test is classed as biochemical.
Settings: not given
Regarding `CCCCCC[C@@H](O)C/C=C\CCCCCCCC(=O)N(Cc1ccccc1)C(CC(C)CCC=C(C)C)C(=O)NC1CCCCC1` (stereo partly shown) [8a, Ugi adduct 8a], the concentration for half-maximal inhibition (IC50) amounted to 7.3 ± 0.6 µM.

`CCCCCC[C@@H](O)C/C=C\CCCCCCCC(=O)N(Cc1ccccc1)C(C)(CC[C@@H]1[C@H]2CC(=C(C)C)C(=O)C[C@@]12C)C(=O)NC1CCCCC1` (mixture of isomers) [compound 10, Ugi adduct 10] came in with an IC50 of 7.7 ± 0.6 µM.

The compound `CCCCCC[C@@H](O)C/C=C\CCCCCCCC(=O)N(Cc1ccccc1)C(C(=O)NC1CCCCC1)c1ccccc1` (stereo partly shown) [compound 9, Ugi adduct 9] registered an IC50 of 7.9 ± 0.5 µM.

On to `CC(C)=C1C[C@@H]2[C@@H](CCC(C)(C(=O)NC3CCCCC3)N(C(=O)CCl)c3ccc4ccc5cccc6ccc3c4c56)[C@]2(C)CC1=O` (stereo partly shown) [compound 7, Ugi adduct 7], for which the IC50 was 3.1 ± 0.1 µM.

As for `CCCCCC[C@@H](O)C/C=C\CCCCCCCC(=O)O[C@@H](C/C=C\CCCCCCCC(=O)N(Cc1ccccc1)C(CC(C)CCC=C(C)C)C(=O)NC1CCCCC1)CCCCCC` (stereo partly shown) [8b, Ugi adduct 8b], half-maximal inhibition (IC50) required 13.4 ± 1.3 µM.

For orientation: inhibition means the drop in the measured response relative to a control, in per cent. By IC50 is commonly meant the point on the concentration scale where inhibition reaches its midpoint. Read a high IC50 as weaker potency.
